Laboratory results published in patent publication US4147869A, “3,4-Dihydrocarbostyril derivatives and process for preparing the same” (Otsuka Pharmaceutical Co., Ltd., priority 1976, dated 1979).
Where a name gives a salt, the structure may show the parent alone. Read-outs that look alike come from different tables or passages of the source.

Experiments:
β-adrenoreceptor = assay: β-adrenergic blocking activity in anesthetized dogs: antagonism (Inhibition %) of isoprenaline-induced responses; format: in vivo, dog; settings: 300 μg/kg i.v., 10 minutes after; for Inhibition (%) dBP (antagonism to the depression of diastolic blood pressure induced by isoprenaline) / Inhibition (%) HR (antagonism to the increase in heart rate induced by isoprenaline): isoprenaline 1 μg/kg i.v.; for Inhibition (%) AR (antagonism to the depression by isoprenaline in increase of air-way resistance induced by histamine): isoprenaline 1 μg/kg, histamine 5 μg/kg i.v.
Procedure: The β-adrenergic blocking activity of the compounds of this invention was determined as follows:
Male hybrid adult dogs, weighing 10 to 16 kg, were anesthesized with sodium pentobarbital administered intravenously at a level of 30 mg/kg of body weight, and a cannula was inserted into the trachea of each of the anesthesized dogs. In order to avoid blood coagulation, heparin was administered intravenously at a level of 1000 units and thereafter a cannula was inserted into the right femoral artery. The experiments were conducted under artificial respiration at a rate of 20 ml/kg, 18 r.p.m.
The above parameters were continuously recorded on a polygraph (8S 28 Type, tradename of Sanei Sokki Co., Japan). During the experiment, gallamine was administered intravenously at a dosage of 3 mg/kg at one-hour intervals to avoid fluctuation of air-way resistance.
The β-adrenergic blocking activity of each of the test compounds was evaluated in terms of antagonism (Inhibition %) to the depression at the diastolic blood pressure (dBP) and to the increase in the heart rate induced by the intravenous administration of isoprenaline (1 μg/kg) and in terms of antagonism (Inhibition %) to the depression by isoprenaline in increase of air-way resistance which was induced by intravenous administration of histamine (5 μg/kg). In this case, histamine was administered 45 seconds after the administration of isoprenaline.

[1] = acute toxicity (LD50) by intravenous and oral administration; settings: rat, in vivo, fasted 12 hours
Procedure: Further, the acute toxicity of the compounds of the present invention having the formula (I) was determined by intravenous administration (i.v.) and oral administration (p.o.) in 5 to 6 groups of […] (dd strain; body weight, 18 to 22 g; 10 rats in each group) which have been fasted for 12 hours prior to the test.

[2] = iv, male rats, i.v., read-out: LD50 i.v.
[3] = po, male rats, p.o., read-out: LD50 p.o.

COc1ccc(CCNCC(O)COc2ccc(NC(C)=O)c3c2CCC(=O)N3)cc1OC (centres unmarked) [compound 2]
Inhibition (%) dBP (antagonism to the depression of diastolic blood pressure induced by isoprenaline) (β-adrenoreceptor): 25.5%
Inhibition (%) HR (antagonism to the increase in heart rate induced by isoprenaline) (β-adrenoreceptor): 30.2%
Inhibition (%) AR (antagonism to the depression by isoprenaline in increase of air-way resistance induced by histamine) (β-adrenoreceptor): 10.8%
LD50 ([1]; iv, female rats, i.v., read-out: LD50 i.v.): 142 mg/kg
LD50 [1, 2]: 158 mg/kg
LD50 ([1]; po, female rats, p.o., read-out: LD50 p.o.): 1230 mg/kg
LD50 [1, 3]: 1350 mg/kg

COc1ccccc1N1CCN(CC(O)COc2ccc(NC(C)=O)c3c2CCC(=O)N3)CC1 (centres unmarked) [compound 10]
Inhibition (%) dBP (antagonism to the depression of diastolic blood pressure induced by isoprenaline) (β-adrenoreceptor): 11.6%
Inhibition (%) HR (antagonism to the increase in heart rate induced by isoprenaline) (β-adrenoreceptor): 21.7%
Inhibition (%) AR (antagonism to the depression by isoprenaline in increase of air-way resistance induced by histamine) (β-adrenoreceptor): 6.2%
LD50 [1, 2]: 125 mg/kg
LD50 [1, 3]: 1170 mg/kg

CCOC(=O)Nc1ccc(OCC(O)CNCCOc2ccc(C(N)=O)cc2)c2c1NC(=O)CC2 (centres unmarked) [compound 4]
Inhibition (%) dBP (antagonism to the depression of diastolic blood pressure induced by isoprenaline) (β-adrenoreceptor): 3.4%
Inhibition (%) HR (antagonism to the increase in heart rate induced by isoprenaline) (β-adrenoreceptor): 47.3%
Inhibition (%) AR (antagonism to the depression by isoprenaline in increase of air-way resistance induced by histamine) (β-adrenoreceptor): 2.5%
LD50 [1, 2]: 145 mg/kg
LD50 [1, 3]: 1210 mg/kg

COc1ccc(CCNCC(O)COc2c(NC(C)=O)ccc3c2CCC(=O)N3)cc1OC (centres unmarked) [compound 6]
Inhibition (%) dBP (antagonism to the depression of diastolic blood pressure induced by isoprenaline) (β-adrenoreceptor): 11.3%
Inhibition (%) HR (antagonism to the increase in heart rate induced by isoprenaline) (β-adrenoreceptor): 37.2%
Inhibition (%) AR (antagonism to the depression by isoprenaline in increase of air-way resistance induced by histamine) (β-adrenoreceptor): 12.6%
LD50 [1, 2]: 160 mg/kg
LD50 [1, 3]: 1380 mg/kg

COc1ccc(OCCNCC(O)COc2ccc(NC(N)=O)c3c2CCC(=O)N3)cc1 (centres unmarked) [compound 3]
Inhibition (%) dBP (antagonism to the depression of diastolic blood pressure induced by isoprenaline) (β-adrenoreceptor): 31.8%
Inhibition (%) HR (antagonism to the increase in heart rate induced by isoprenaline) (β-adrenoreceptor): 39.6%
Inhibition (%) AR (antagonism to the depression by isoprenaline in increase of air-way resistance induced by histamine) (β-adrenoreceptor): 14.7%
LD50 [1, 2]: 156 mg/kg
LD50 [1, 3]: 1340 mg/kg

CC(C)(C)NCC(O)COc1cccc2c1CCC(=O)N2 (centres unmarked) [compound 11, 5-(3-t-butylamino-2-hydroxy)propoxy-3,4-dihydrocarbostyril hydrochloride, reference compound]
Inhibition (%) dBP (antagonism to the depression of diastolic blood pressure induced by isoprenaline) (β-adrenoreceptor): 100%
Inhibition (%) HR (antagonism to the increase in heart rate induced by isoprenaline) (β-adrenoreceptor): 100%
Inhibition (%) AR (antagonism to the depression by isoprenaline in increase of air-way resistance induced by histamine) (β-adrenoreceptor): 100%

CC(=O)Nc1ccc2c(c1OCC(O)CNC(C)C)CCC(=O)N2 (centres unmarked) [compound 1]
Inhibition (%) dBP (antagonism to the depression of diastolic blood pressure induced by isoprenaline) (β-adrenoreceptor): 17.8%
Inhibition (%) HR (antagonism to the increase in heart rate induced by isoprenaline) (β-adrenoreceptor): 25.3%
Inhibition (%) AR (antagonism to the depression by isoprenaline in increase of air-way resistance induced by histamine) (β-adrenoreceptor): 11.3%

Cc1ccccc1N1CCN(CC(O)COc2ccc(NS(C)(=O)=O)c3c2CCC(=O)N3)CC1 (centres unmarked) [compound 8]
Inhibition (%) dBP (antagonism to the depression of diastolic blood pressure induced by isoprenaline) (β-adrenoreceptor): 6.4%
Inhibition (%) HR (antagonism to the increase in heart rate induced by isoprenaline) (β-adrenoreceptor): 21.0%
Inhibition (%) AR (antagonism to the depression by isoprenaline in increase of air-way resistance induced by histamine) (β-adrenoreceptor): 7.1%

COc1ccc(CCNCC(O)COc2cccc3c2CCC(=O)N3)cc1OC (centres unmarked) [compound 13, 5-(3,4-dimethoxyphenethylamino-2-hydroxy)propoxy-3,4-dihydrocarbostyril hydrochloride, reference compound]
Inhibition (%) dBP (antagonism to the depression of diastolic blood pressure induced by isoprenaline) (β-adrenoreceptor): 65.6%
Inhibition (%) HR (antagonism to the increase in heart rate induced by isoprenaline) (β-adrenoreceptor): 87.2%
Inhibition (%) AR (antagonism to the depression by isoprenaline in increase of air-way resistance induced by histamine) (β-adrenoreceptor): 79.1%

NC(=O)Nc1ccc(OCC(O)CN2CCN(c3ccccc3Cl)CC2)c2c1NC(=O)CC2 (centres unmarked) [compound 9]
Inhibition (%) dBP (antagonism to the depression of diastolic blood pressure induced by isoprenaline) (β-adrenoreceptor): 15.3%
Inhibition (%) HR (antagonism to the increase in heart rate induced by isoprenaline) (β-adrenoreceptor): 23.6%
Inhibition (%) AR (antagonism to the depression by isoprenaline in increase of air-way resistance induced by histamine) (β-adrenoreceptor): 8.9%

Cc1ccc(S(=O)(=O)Nc2ccc(OCC(O)CNCCOc3ccc(C(N)=O)cc3)c3c2NC(=O)CC3)cc1 (centres unmarked) [compound 7]
Inhibition (%) dBP (antagonism to the depression of diastolic blood pressure induced by isoprenaline) (β-adrenoreceptor): 11.4%
Inhibition (%) HR (antagonism to the increase in heart rate induced by isoprenaline) (β-adrenoreceptor): 26.8%
Inhibition (%) AR (antagonism to the depression by isoprenaline in increase of air-way resistance induced by histamine) (β-adrenoreceptor): 10.2%
LD50 [1, 2]: 115 mg/kg
LD50 [1, 3]: 1120 mg/kg

CC(NCC(O)COc1ccc(NC(=O)C2CCCCC2)c2c1CCC(=O)N2)c1ccccc1 (centres unmarked) [compound 5]
Inhibition (%) dBP (antagonism to the depression of diastolic blood pressure induced by isoprenaline) (β-adrenoreceptor): 42.4%
Inhibition (%) HR (antagonism to the increase in heart rate induced by isoprenaline) (β-adrenoreceptor): 53.3%
Inhibition (%) AR (antagonism to the depression by isoprenaline in increase of air-way resistance induced by histamine) (β-adrenoreceptor): 23.2%
